Measured values taken from patent US8247573B2, “Substituted N-(2-mercaptopyridin-3-yl)amides as KCNQ2/3 modulators” (Gruenenthal GmbH, priority 2009, dated 2012).

What was measured:
[1] = molecular target: T1, KCNQ2/3 channels (Homo sapiens, UniProt O43525+O43526); assay: Fluorescence assay using a voltage-sensitive dye (fluorimetry); format: cell-based; details: CHO-K1 cells expressing KCNQ2/3; for EC50: agonistic activity; for Emax: relative to retigabine = 100%, negative values = antagonistic, read-out: Fluorimetry % efficacy (I/EC50, retigabine = 100%)
T1 construct: expressed in transfected cells; host or cells: CHO-K1

[2] = system: mice; assay: Formalin test in mice; format: in vivo; details: 4.64 mg/kg, phase 2 (chronic pain), change versus vehicle control
Protocol: The formalin test (Dubuisson, D. and Dennis, S. G., 1977, Pain, 4, 161-174) is a model for acute and chronic pain. A single formalin injection into the dorsal side of one rear paw is used to induce a biphase nociceptive response in experimental animals allowed to move freely, and the response is recorded by observation of three clearly distinguishable behaviour patterns. The response comprises two phases: phase 1=immediate response (duration up to 10 min; shaking of paw, licking), phase 2=delayed response (after a rest phase; likewise shaking of paw, licking; duration up to 60 min). […] In the experiments presented here the chronic pain component (phase 2) was evaluated.
Formalin is administered subcutaneously in a volume of 20 μl and a concentration of 1% into the dorsal side of the right rear paw of each animal. The specific behavioural changes, such as lifting, shaking or licking the paw (score 3, Dubuisson & Dennis, 1977), were observed and recorded during the observation period of 21 to 24 min after formalin injection. […]
Based on the quantification of the pain behaviour, the effect of the substance in the formalin test was determined as the change in comparison to the control as a percentage. […]

Compound | EC50 [1] [µM] | Emax [1] [%] | Formalin test in mice IV Effect @ dose [mg/kg] [2] [% @ 4.64] | IC50 ([1]; antagonistic activity) [µM]
O=C(Cc1cccs1)Nc1cccnc1SCCS(=O)(=O)c1cccc(C(F)(F)F)c1 [Example 3, 2-Thiophen-2-yl-N-[2-[2-[[3-(trifluoromethyl)phenyl]sulfonyl]-ethylsulfanyl]-pyridin-3-yl]acetamide] | 0.031 | 164 | 87 | –
O=C(Nc1cccnc1SCCS(=O)(=O)c1cccc(C(F)(F)F)c1)c1cccc(O)c1 [Example 47, 3-Hydroxy-N-[2-[2-[[3-(trifluoromethyl)phenyl]sulfonyl]-ethylsulfanyl]-pyridin-3-yl]benzamide] | 0.265 | 95 | – | –
COc1ccccc1CC(=O)Nc1cccnc1SCCS(=O)(=O)c1cccc(C(F)(F)F)c1 [Example 9, 2-(2-Methoxyphenyl)-N-[2-[2-[[3-(trifluoromethyl)phenyl]sulfonyl]-ethylsulfanyl]-pyridin-3-yl]acetamide] | – | -45 | – | 0.192
O=C1CCCC(CC(=O)Nc2cccnc2SCCS(=O)(=O)c2cccc(C(F)(F)F)c2)C1 (stereo not drawn) [Example 55, 2-(3-Oxocyclohexyl)-N-[2-[2-[[3-(trifluoromethyl)phenyl]sulfonyl]-ethylsulfanyl]-pyridin-3-yl]acetamide] | 3.6 | 84.8 | – | –
